# Target: T1, human ALK5 (kinase domain, ALK5 T204D) (Homo sapiens, UniProt P36897, T204D)
# T1 construct: The kinase domain of human ALK5 (amino acids 200-503); made in house; host or cells: insect cells (baculovirus)
# T1 sequence (P36897 200-503 T204D): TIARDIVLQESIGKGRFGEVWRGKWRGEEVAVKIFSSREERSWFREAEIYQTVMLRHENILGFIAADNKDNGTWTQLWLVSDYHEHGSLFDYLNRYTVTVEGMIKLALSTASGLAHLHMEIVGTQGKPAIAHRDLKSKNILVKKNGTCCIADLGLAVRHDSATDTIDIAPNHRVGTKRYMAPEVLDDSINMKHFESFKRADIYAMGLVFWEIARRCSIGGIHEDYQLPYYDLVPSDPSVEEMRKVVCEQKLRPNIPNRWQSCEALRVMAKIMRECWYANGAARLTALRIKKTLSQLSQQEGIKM
# Assay: ALK5 kinase assay ([33P] phosphate incorporation into casein)
# Format: biochemical
# Conditions: casein substrate, 1 μM unlabelled ATP
# Outline: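 His-tagged human ALK5 T204D kinase domain (aa 200-503, constitutively active, baculovirus/insect-cell expressed), 50 ng/well, preincubated 10 min with compound and dephosphorylated casein (200 μg/well) in Tris pH 7.4/MgCl2/MnCl2. Reaction started with 1 μM ATP plus [33P]ATP, 50 min at room temperature, EDTA-stopped; casein-bound 33P counted by scintillation after filter capture.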
row,SMILES,IC50 [nM]
1,"Cc1cccc(-c2nc(-c3cncc(-c4ccc5c(c4)CNCC5)c3)c3cc[nH]c3n2)n1 [Example 118, 7-{5-[2-(6-Methyl-pyridin-2-yl)-7H-pyrrolo[2,3-d]pyrimidin-4-yl]-pyridin-3-yl}-1,2,3,4-tetrahydro-isoquinoline]",3.9
2,"C#Cc1cncc(-c2nc(-c3cccc(C)n3)nc3[nH]ccc23)c1 [Example 119, 4-(5-Ethynyl-pyridin-3-yl)-2-(6-methyl-pyridin-2-yl)-7H-pyrrolo[2,3-d]pyrimidine]",292
3,"Cc1cccc(-c2cc(-c3cncc(-c4cccc(C5CCCN5)c4)c3)c3cc[nH]c3n2)n1 (stereo not shown) [Example 120, 6-(6-Methyl-pyridin-2-yl)-4-[5-(3-pyrrolidin-2-yl-phenyl)-pyridin-3-yl]-1H-pyrrolo[2,3-b]pyridine]",3.6
4,"CC(=O)N1CC=C(c2cncc(-c3cc(-c4cccc(C)n4)nc4[nH]ccc34)c2)CC1 [Example 121, 1-{5-[6-(6-Methyl-pyridin-2-yl)-1H-pyrrolo[2,3-b]pyridin-4-yl]-3′,6′-dihydro-2′H-[3,4′]bipyridinyl-1′-yl}-ethanone]",65
5,"Cc1cccc(-c2nc(-c3cncc(C#CCN4CCN(C)CC4)c3)c3cc[nH]c3n2)n1 [Example 122, 4-{5-[3-(4-methyl-piperazin-1-yl)-prop-1-ynyl]-pyridin-3-yl}-2-(6-methyl-pyridin-2-yl)-7H-pyrrolo[2,3-d]pyrimidine]",45
6,"Cc1cccc(-c2cc(-c3cncc(-c4cnn(C)c4)c3)c3cc[nH]c3n2)n1 [Example 123, 4-[5-(1-Methyl-1H-pyrazol-4-yl)-pyridin-3-yl]-6-(6-methyl-pyridin-2-yl)-1H-pyrrolo[2,3-b]pyridine]",4.4
7,"Cc1cccc(-c2nc(-c3cncc(-c4ccc(CN(C)C)cn4)c3)c3cc[nH]c3n2)n1 [Example 124, Dimethyl-{5′-[2-(6-methyl-pyridin-2-yl)-7H-pyrrolo[2,3-d]pyrimidin-4-yl]-[2,3′]bipyridinyl-5-ylmethyl}-amine]",11
8,"Cc1cccc(-c2cc(-c3cncc(-c4ccc(CN(C)C)cn4)c3)c3cc[nH]c3n2)n1 [Example 125, Dimethyl-{5′-[6-(6-methyl-pyridin-2-yl)-1H-pyrrolo[2,3-b]pyridin-4-yl]-[2,3′]-5-ylmethyl}-amine]",8
9,"Cc1cccc(-c2nc(-c3cncc4c3CCCO4)c3cc[nH]c3n2)n1 [Example 126, 5-[2-(6-Methyl-pyridin-2-yl)-7H-pyrrolo[2,3-d]pyrimidin-4-yl]-3,4-dihydro-2H-pyrano[2,3-c]pyridine]",229
10,"Cc1cccc(-c2cc(-c3cncc(-c4ccc([C@H](C)N)cc4)c3)c3cc[nH]c3n2)n1 [Example 127, (S)-1-(4-{5-[6-(6-Methyl-pyridin-2-yl)-1H-pyrrolo[2,3-b]pyridin-4-yl]-pyridin-3-yl}-phenyl)-ethylamine]",17
11,"Cc1cccc(-c2cc(-c3cncc(-c4ccc([C@@H](C)N)cc4)c3)c3cc[nH]c3n2)n1 [Example 128, (R)-1-(4-{5-[6-(6-Methyl-pyridin-2-yl)-1H-pyrrolo[2,3-b]pyridin-4-yl]-pyridin-3-yl}-phenyl)-ethylamine]",13
12,"Cc1cccc(-c2cc(-c3cncc(C#CCN4CCN(C)CC4)c3)c3cc[nH]c3n2)n1 [Example 129, 4-{5-[3-(4-Methyl-piperazin-1-yl)-prop-1-ynyl]-pyridin-3-yl}-6-(6-methyl-pyridin-2-yl)-1H-pyrrolo[2,3-b]pyridine]",16
13,"Cc1cccc(-c2cc(-c3cncc(-c4cccc(CNCC(=O)O)c4)c3)c3cc[nH]c3n2)n1 [Example 130, (3-{5-[6-(6-Methyl-pyridin-2-yl)-1H-pyrrolo[2,3-b]pyridin-4-yl]-pyridin-3-yl}-benzylamino)-acetic acid]",11
14,"COC(=O)CNCc1cccc(-c2cncc(-c3cc(-c4cccc(C)n4)nc4[nH]ccc34)c2)c1 [Example 131, (3-{5-[6-(6-Methyl-pyridin-2-yl)-1H-pyrrolo[2,3-b]pyridin-4-yl]-pyridin-3-yl}-benzylamino)-acetic acid methyl ester]",10
15,"Cc1cccc(-c2cc(-c3cncc(-c4cccc(CNCCO)c4)c3)c3cc[nH]c3n2)n1 [Example 132, 2-(3-{5-[6-(6-Methyl-pyridin-2-yl)-1H-pyrrolo[2,3-b]pyridin-4-yl]-pyridin-3-yl}-benzylamino)-ethanol]",5.3

# Next, values leading:
row,IC50 [nM],SMILES
1,7,"COC(=O)CNCc1ccc(-c2cncc(-c3cc(-c4cccc(C)n4)nc4[nH]ccc34)c2)cc1 [Example 133, (4-{5-[6-(6-methyl-pyridin-2-yl)-1H-pyrrolo[2,3-b]pyridin-4-yl]-pyridin-3-yl}-benzylamino)-acetic acid methyl ester]"
2,39,"Cc1cccc(-c2cc(-c3cncc(-c4ccc(CN5CCC(F)(F)C5)cc4)c3)c3cc[nH]c3n2)n1 [Example 134, 4-{5-[4-(3,3-Difluoro-pyrrolidin-1-ylmethyl)-phenyl]-pyridin-3-yl}-6-(6-methyl-pyridin-2-yl)-1H-pyrrolo[2,3-b]pyridine]"
3,3.3,"Cc1cccc(-c2cc(-c3cncc(-c4ccc(CNCCO)cc4)c3)c3cc[nH]c3n2)n1 [Example 135, 2-(4-{5-[6-(6-Methyl-pyridin-2-yl)-1H-pyrrolo[2,3-b]pyridin-4-yl]-pyridin-3-yl}-benzylamino)-ethanol]"
4,10,"Cc1cccc(-c2cc(-c3cncc(-c4ccc(CNCC(=O)O)cc4)c3)c3cc[nH]c3n2)n1 [Example 136, (4-{5-[6-(6-Methyl-pyridin-2-yl)-1H-pyrrolo[2,3-b]pyridin-4-yl]-pyridin-3-yl}-benzylamino)-acetic acid]"
5,9,"Cc1cccc(-c2cc(-c3cncc(-c4ccc(CN5CCN(C(C)C)CC5)cc4)c3)c3cc[nH]c3n2)n1 [Example 137, 4-{5-[4-(4-Isopropyl-piperazin-1-ylmethyl)-phenyl]-pyridin-3-yl}-6-(6-methyl-pyridin-2-yl)-1H-pyrrolo[2,3-b]pyridine]"
6,11,"Cc1cccc(-c2cc(-c3cncc(-c4ccc(CN5CC(O)C5)cc4)c3)c3cc[nH]c3n2)n1 [Example 138, 1-(4-{5-[6-(6-Methyl-pyridin-2-yl)-1H-pyrrolo[2,3-b]pyridin-4-yl]-pyridin-3-yl}-benzyl)-azetidin-3-ol]"
7,9,"Cc1cccc(-c2cc(-c3cncc(-c4ccc(CNCCCO)cc4)c3)c3cc[nH]c3n2)n1 [Example 139, 3-(4-{5-[6-(6-Methyl-pyridin-2-yl)-1H-pyrrolo[2,3-b]pyridin-4-yl]-pyridin-3-yl}-benzylamino)-propan-1-ol]"
8,6.2,"Cc1cccc(-c2cc(-c3cncc(-c4ccc(CNCCC(=O)O)cc4)c3)c3cc[nH]c3n2)n1 [Example 140, 3-(4-{5-[6-(6-Methyl-pyridin-2-yl)-1H-pyrrolo[2,3-b]pyridin-4-yl]-pyridin-3-yl}-benzylamino)-propionic acid]"
9,17,"COC(=O)CN(C)Cc1cccc(-c2cncc(-c3cc(-c4cccc(C)n4)nc4[nH]ccc34)c2)c1 [Example 141, [Methyl-(3-{5-[6-(6-methyl-pyridin-2-yl)-1H-pyrrolo[2,3-b]pyridin-4-yl]-pyridin-3-yl}-benzyl)-amino]-acetic acid methyl ester]"
10,10,"Cc1cccc(-c2cc(-c3cncc(-c4cccc(CN(C)CCO)c4)c3)c3cc[nH]c3n2)n1 [Example 142, 2-[Methyl-(3-{5-[6-(6-methyl-pyridin-2-yl)-1H-pyrrolo[2,3-b]pyridin-4-yl]-pyridin-3-yl}-benzyl)-amino]-ethanol]"

# Source: patent publication US8314112B2 (Novartis AG, priority 2008, dated 2012)
